Laboratory results: US12083109B2, “Neurokinin antagonists and uses thereof” (California Institute of Technology, priority 2017, dated 2024)
“Also recorded” adds a separate entry of the source.

Molecular target: T1, hM4DREADD in Tac2+ neurons (Homo sapiens, UniProt P08173, A203G/Y113C)
T1 construct: host or cells: Tac2+ neurons of Tac2-Cre mice (dBNSTa, DMH or CeA), transduced in vivo with AAV2-EF1a-DIO-hM4D-mCherry
T1 sequence (P08173 1-479 Y113C/A203G): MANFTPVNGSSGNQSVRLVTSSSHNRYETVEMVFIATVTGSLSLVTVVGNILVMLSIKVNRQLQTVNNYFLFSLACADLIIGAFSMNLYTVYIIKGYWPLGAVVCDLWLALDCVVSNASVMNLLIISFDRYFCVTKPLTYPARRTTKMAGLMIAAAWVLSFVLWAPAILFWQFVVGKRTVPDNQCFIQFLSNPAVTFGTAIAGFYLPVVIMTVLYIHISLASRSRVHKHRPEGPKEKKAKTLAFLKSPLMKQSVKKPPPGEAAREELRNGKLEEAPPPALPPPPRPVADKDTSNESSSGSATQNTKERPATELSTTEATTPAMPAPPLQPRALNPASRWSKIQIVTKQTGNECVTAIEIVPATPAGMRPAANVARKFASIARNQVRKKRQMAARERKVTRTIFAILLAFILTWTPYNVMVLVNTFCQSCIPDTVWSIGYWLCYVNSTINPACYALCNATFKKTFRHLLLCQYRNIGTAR
Assay: Shock reactivity, CNO silencing of Tac2+ neurons (hM4DREADD)
Assay type: in vivo, mouse
Details: hM4DREADD in CeA
Protocol: The protocol for tone trace fear conditioning was performed as previously described (Cushman et al., 2014; incorporated by reference in its entirety) using fear conditioning boxes previously described in detail (Haubensak et al., 2010; Kunwar et al., 2015; incorporated by reference in their entirety). Briefly, mice were transported in squads of four on a white cart to a novel behavioral testing room containing 4 sound-attenuating fear-conditioning chambers (Med Associates). This “training context” was comprised of flat grid flooring (wired to a shock generator and scrambler for footshock delivery, Med Associates), houselights, and the presence of an internal fan for background noise. Chambers were sprayed with 70% Simple Green solution on the underlying chamber pan to generate a unique contextual scent and chambers were cleaned with 70% EtOH between squads. […] Freezing behavior during the baseline period as well as during each tone presentation (“during”) and trace interval (“post”) were assessed as previously described (Zelikowsky et al., 2014; incorporated by reference in its entirety) using automated near-infrared video tracking equipment and computer software (VideoFreeze, Med Associates). Shock reactivity (motion, arbitrary units) was measured during the 2 second shock US as well as the 3 seconds immediately following. […]

C[N+]1([O-])CCN(C2=Nc3cc(Cl)ccc3Nc3ccccc32)CC1 [CNO, clozapine-N-oxide]
SIS-enhanced shock reactivity: suppressed; also recorded: attenuated
